Source: patent US20060205642A1, “Oral methods of treatment using proANF peptides” (priority 2005, published 2006)

Tests used:
[1] = Infusion into human subjects with Class III NYHA congestive heart failure; format: in vivo, humans
Description: Human proANF's 1-30, 31-67, 79-98, and 99-126 (i.e., ANF) were infused into human subjects with Class III New York Heart Association congestive heart failure (CHF). An identical protocol to that used in example V where these peptides were infused into healthy human subjects was utilized. (See Attachment C and F for a detailed description of this protocol). The human subjects with congestive heart failure received an identical dose (0.1 μg/kg body wt/minute for 60 minutes) that the healthy human subjects received. […] This striking urine output secondary to proANF 31-67 was significant at P<0.0001 compared to the pre-infusion output of the congestive heart failure subjects (n=6).

[2] = tested on: particulate guanylate cyclase; assay: Particulate guanylate cyclase activity in the kidney; format: biochemical; settings: 1 μM; whole kidney homogenates, renal cortical and medullary membranes, isolated distal nephrons
Description: Testing is also carried out to determine biologic effects of these peptides by measuring their effects on particulate guanylate activity in the kidney.

[3] = tested on: particulate guanylate cyclase; assay: Cyclic GMP / particulate guanylate cyclase activation in cultured smooth muscle cells and porcine aorta; format: cell-based
[4] = tested on: prostaglandin E2 (PGE2) synthesis; assay: Prostaglandin E2 synthesis (FIG. 8); format: biochemical; settings: n=6, ANOVA and Duncan's MRT

H-EVVPPQVLSEPNEEAGAALSPLPEVPPWTGEVSPAQR-OH [proANF 31-67]
FENa 20 minutes after infusion began ([1]; CHF): doubled
FENa at the end of the infusion vs baseline ([1]; CHF): 4.5 fold
decrease of central venous pressure ([1]; CHF): 27%
decrease of pulmonary capillary wedge pressure ([1]; CHF): 33%
heart rate ([1]; CHF): did not change significantly
increase of cardiac index ([1]; CHF): 35%
increase of cardiac output ([1]; CHF): 34%
increase of stroke volume index ([1]; CHF): 24%
mean pulmonary artery pressure ([1]; CHF): did not change significantly
sodium excretion within 20 minutes ([1]; CHF): doubling
enhancement of sodium excretion ([1]; CHF subjects, 100 ng/kg body weight/min for 60 minutes): three-to-eight fold
urine output in 20 minutes ([1]; CHF, 0.1 μg/kg body wt/minute for 60 minutes): doubled
urine output at the end of the 60 minute infusion ([1]; CHF, 0.1 μg/kg body wt/minute, n=6): 4.8 fold
fractional excretion of sodium (in words) ([1]; CHF, 100 ng/kg body weight per minute for 60 minutes): significantly (P<0.05) increased
maximum increase of fractional excretion of sodium (FENa) ([1]; CHF, P<0.001): 6 fold
sodium excretion 3 hours after infusion was stopped vs baseline ([1]; CHF, P<0.01): 3 fold
decrease of pulmonary vascular resistance ([1]; CHF, during the infusion): 25%
decrease of systemic vascular resistance ([1]; CHF, during the infusion): 24%
urine output 3 hours after stopping the infusion vs pre-infusion values ([1]; CHF, n=6): 4.3 fold
urine output 3 hours after stopping the infusion ([1]; CHF, n=6, baseline 1.56±0.35 mL/min): 6.7 ± 0.65 mL/min
cardiac index after proANF 31-67 ([1]; CHF, from 2.66±0.01): 3.58±0.01 L·min^−1·m^−2
cardiac output after proANF 31-67 ([1]; CHF, from 5.35±0.9 L/min): 7.9 ± 1.2 L/min
effects in persons with CHF compared to healthy individuals ([1]; diuretic and natriuretic effects): not blunted (i.e., decreased) compared to healthy individuals
adverse effects ([1]; human, in vivo): no adverse effects
hypotension ([1]; human, in vivo): None became hypotensive
increase in urinary volume and flow ([1]; one CHF patient, for six hours after infusion was stopped): 2 fold
particulate guanylate cyclase activity [2]: enhance
cyclic GMP levels in cultured smooth muscle cells ([3]; cultured smooth muscle cells): increase cyclic GMP levels
concentration of maximal activation of guanylate cyclase activity ([3]; porcine aorta and isolated smooth muscle cells): about 1 μM
EC50 ([3]; porcine aorta and isolated smooth muscle cells, read-out: half maximal activation (ED5o) of guanylate cyclase): ~0.01 µM
prostaglandin E2 (PGE2) synthesis [4]: increase prostaglandin E2 (PGE2) synthesis
